# What was measured:
# [1] = test system: prostate glands of TRAMP mice; experiment: SERMs in prevention of prostate cancer in the TRAMP model (wholemount and histology at 20 weeks); assay type: in vivo, mouse; settings: sacrificed at 20 weeks; for Animals with prostate cancer / animals evaluated (column has no head): placebo 5/5; for Percent of animals with prostate cancer (column has no head): placebo 100%
# Description: Experimental design: Chemopreventive treatment of mice is initiated post-natal at 30 days. Three groups of 50 hybrid TRAMP male mice each are treated with either Tamoxifen citrate, Raloxifene (SERMs), or Faslodex (pure antiestrogen ICI 182,780). The drugs are obtained as customized sustained-release pellets (Innovative Research of America, Sarasota, Fla.) and delivered as subcutaneous implants (see preliminary data). Control animals receive placebo implant with no pharmacological activity. Animals (n=10) are sacrificed at periodic intervals, 10, 15, 20, 25 and 30 weeks age, and the efficacy of the treatment leading to either absence of tumor formation or reduction in tumor size, if present, is assessed by comparison with placebo control animals. Blood is collected to evaluate changes in serum androgens and estrogens with each treatment Prostatic tissues is saved: a) for morphometric studies; b) for histologic studies (the tissue will be fixed in 10% buffered formalin, processed and paraffin embedded); c) for molecular studies (the tissues is frozen in liquid nitrogen and stored at −70° C.). Necropsies and survival data is also recorded.
# The results of the experiment reveal the relative chemopreventive efficacy of the various antiestrogens in the delay or prevention of prostate cancer in the TRAMP model. The morphological studies indicate the gross changes, if any, in the development of the prostate size and ductal pattern as a result of each treatment. Paraffinized tissue sections are stained using standard H&E techniques for histological changes such as PIN that will be assessed to monitor the appearance of precancerous lesions as a precursor of prostatic adenocarcinoma. Serum estradiol and total testosterone levels are measured for each age interval to assess any changes in these hormones and whether or not they correlate to changes in PIN. The peptide growth factor levels of TGF, TGF 1, TGF 3, and bFGF are quantitative in prostate samples taken at each interval. Corresponding peptide growth factor receptors are also assessed for EGFR and TGF RI and RII.
# [2] = test system: ventral prostate of TRAMP mice; experiment: Chemopreventive activity in TRAMP transgenic mice, absence of palpable tumor formation; assay type: in vivo, mouse; settings: for Week at which tumor formation in the ventral prostate was noted: n=12, placebo week 17; for Animals still tumor-free: all control animals had tumors
# From the text: The study of prostate cancer chemoprevention has been hindered by the lack of appropriate animal models. The recent development of the transgenic adenocarcinoma mouse prostate (TRAMP) model enables the study of chemoprevention. In the TRAMP model, which is described in Greenberg et al., A Prostate cancer in a transgenic mouse, Proc. Natl Acad. Sci. USA, 1995, Vol. 92, pages 3439-3443, the PB-SV40 large T antigen (PB-Tag) transgene is expressed specifically in the epithelial cells of the murine prostate. As a result, this model has several advantages over currently existing models: 1) mice develop progressive forms of prostatic epithelial hyperplasia as early as 10 weeks and invasive adenocarcinoma around 18 weeks of age; 2) the metastatic spread of prostate cancer pattern mimics human prostate cancer with the common sites of metastases being lymph node, lung, kidney, adrenal gland, and bone; 3) the development as well as the progression of prostate cancer can be followed within a relatively short period of 10-30 weeks; 4) the tumors arise with prostate cancer transgene prior to the onset of clinical prostate cancer to directly test treatment with chemopreventive agents that may alter prostate carcinogenesis.
# A study was undertaken to test the efficacy of chemopreventive agents in TRAMP transgenic animals (PBTag×FVBwt)(provided by Dr. Norman Greenberg, Baylor College of Medicine, Tex.). […] The TRAMP transgenic male litters were screened for the Large Tag transgene, and the positive males were used in the study. The antiestrogen toremifene, which was to be tested for its possible chemopreventive effects, was incorporated in customized pellets (Innovative Research of America, Sarasota, Fla.), and chemopreventive treatment of mice was initiated postnatally at 30 days (average mouse weight 14 g) Four groups of 10-12 animals each received subcutaneous implantations of 90 day-release toremifene-containing pellets. The diffusible drug dosage, adjusted for growth related changes in weight, was designed to deliver either a low dose (6 mg/kg) or a high dose (30 mg/kg) of toremifene. Control animals (n=IO) received placebo implants The efficacy of the treatment was measured by the absence of palpable tumor formation. The murine prostate tumors were harvested and evaluated by molecular and histological techniques
# [3] = test system: TRAMP mouse ventral prostate; experiment: Histological examination (H&E) of TRAMP prostate tissue; assay type: in vivo
# Description: Tumors from the placebo and high toremifene-treated groups taken at the time of palpation were evaluated histologically. FIG. 2A is an H&E section of the ventral prostate of a 17-week-old normal adult mouse.
# prostate of TRAMP mice = experiment: TRAMP confirmation study: wholemount, histology, large T antigen immunohistochemistry; assay type: in vivo, mouse
# Description: The present study focuses on the histological and molecular changes associated with development of prostate tumor in control animals and the mechanism of toremifene chemopreventive action with TRAMP animals which are bred, screened and treated with sustained-release drug pellets. At predetermined times, groups of 5 animals were sacrificed and their prostates were removed for analysis. The prostate glands were evaluated for the presence of tumor by histology, wholemount dissections, and large T antigen immunohistochemistry. To date, the Placebo and the Toremifene treatments have been completed for the 7, 10, 15 and 20 week time-points, and the results are described below.
# Results: Prostatic wholemounts for 7,10,15, and 20 weeks for the various groups have been completed. […] By 20 weeks, there is a striking delay in tumor occurrence in the Toremifene treated group up to 35 weeks FIG. 4). […] For histological evaluation, tissue samples were fixed, processed and paraffin embedded. Sections ([…]) were cut and stained by routine H&E method.
# LNCaP tumors = experiment: Regression of established LNCaP tumors in athymic nude mice; assay type: in vivo
# Description: Materials and Methods: One million LNCaP cells in Matrigel were subcutaneously injected into each flank of athymic nude mice. A total of 40 mice were injected. After approximately 3-4 weeks, visible tumors developed. After the tumor size was recorded in two dimensions, the mice were divided into placebo and treatment groups based on equivalent tumor burden. A single pellet (placebo versus toremifene 35 mg) was subcutaneously implanted between the scapulae of each mouse. Weekly measurements of the tumor size were recorded. Tumor volume was calculated (tumor volume=[…], where L=tumor length and W=width). The tumor volume at the time of pellet implantation served as the point of reference for future comparison of that tumor's size variation. The weekly variations of each tumor volume were recorded as percent differentiation from the original measurement at pellet implantation.
# [4] = test system: human stromal fibroblast cells; experiment: TGFβ synthesis in human stromal fibroblast cells; assay type: cell-based
# PIN = settings: 60 mg daily for 4 months
structure (smiles),measurement,setting,value
C[C@]12CC[C@@H]3c4ccc(O)cc4C[C@@H](CCCCCCCCC[S+]([O-])CCCC(F)(F)C(F)(F)F)[C@H]3[C@@H]1CC[C@@H]2O (some centres unmarked) [Faslodex],Animals with prostate cancer / animals evaluated (column has no head),[1]; 10 mg/kg/d,8/11
same,Percent of animals with prostate cancer (column has no head),[1]; 10 mg/kg/d,72%
"O=C(c1ccc(OCCN2CCCCC2)cc1)c1c(-c2ccc(O)cc2)sc2cc(O)ccc12 [Raloxifene, 6-hydroxy-2-(4-hydroxyphenyl)-3-[4-(2-piperidinoethoxy)benzoyl]benzo[b]thiophene]",Animals with prostate cancer / animals evaluated (column has no head),[1]; 20 mg/kg/d,3/10
same,Percent of animals with prostate cancer (column has no head),[1]; 20 mg/kg/d,30%
CC/C(=C(\c1ccccc1)c1ccc(OCCN(C)C)cc1)c1ccccc1 [Tamoxifen],Animals with prostate cancer / animals evaluated (column has no head),[1]; 20 mg/kg/d,2/9
same,Percent of animals with prostate cancer (column has no head),[1]; 20 mg/kg/d,22%
CN(C)CCOc1ccc(/C(=C(/CCCl)c2ccccc2)c2ccccc2)cc1 [Toremifene],Delay of time to palpable tumors in 25% of the animals,[2]; high and low toremifene groups vs placebo,7-8 weeks
same,Time at which tumors were palpable in 25% of the animals,"[2]; high and low toremifene groups, placebo week 23",30-31 weeks
same,Week at which tumor formation in the ventral prostate was noted,[2]; high dose (30 mg/kg) 90 day-release sc pellet,19 week
same,Week at which tumor formation in the ventral prostate was noted,[2]; low dose (6 mg/kg) 90 day-release sc pellet,28 week
same,Increase of latency period for development of cancer in the ventral prostate,[2]; vs placebo,up to 11 weeks
same,Animals still tumor-free,"[2]; week 33, high dose (30 mg/kg)",60%
same,Animals still tumor-free,"[2]; week 33, low dose (6 mg/kg)",72%
same,Mitotic index relative to placebo-treated animal,[3]; toremifene-treated 30-week-old TRAMP mouse vs placebo-treated 16-week-old,much lower
same,Prostate histology (glandular architecture),"[3]; toremifene-treated 30-week-old TRAMP mouse, H&E, FIG. 2C",retains much of the normal glandular architecture
same,Delay in the occurrence of prostate cancer (wholemount analysis),"prostate of TRAMP mice; FIG. 3, placebo tumors by 15-20 weeks of age",up to 20 weeks
same,Delay in tumor occurrence,prostate of TRAMP mice; FIG. 4,up to 35 weeks
same,Effect on ductal development and tissue differentiation (histology),prostate of TRAMP mice; H&E sections,inhibited the ductal development and tissue differentiation
same,Mean tumor volume after treatment,"LNCaP tumors; toremifene 35 mg pellet, 1.90 mm^3 at pellet implantation, placebo increased to 2.33",1.68 mm^3
same,Mean serum PSA level,"LNCaP tumors; toremifene 35 mg pellet, not statistically significant vs placebo (p=0.755)",2.80 ng/mL
same,Change of mean tumor volume,"LNCaP tumors; toremifene 35 mg pellet, vs volume at pellet implantation",−0.22 mm^3
same,% Change in volume relative to day 0 of treatment,"LNCaP tumors; week 3, toremifene 35 mg sc pellet, N=11",−34.58%
same,% Change in volume relative to day 0 of treatment,"LNCaP tumors; week 4, toremifene 35 mg sc pellet, N=7",−61.01%
same,% Change in volume relative to day 0 of treatment,"LNCaP tumors; week 5, toremifene 35 mg sc pellet, N=7",−74.51%
same,% Change in volume relative to day 0 of treatment,"LNCaP tumors; week 6, toremifene 35 mg sc pellet, N=5",−61.72%
same,Animals with prostate cancer / animals evaluated (column has no head),[1]; 20 mg/kg/d,1/7
same,Percent of animals with prostate cancer (column has no head),[1]; 20 mg/kg/d,14.2%
same,TGFβ synthesis,[4],significantly induce
same,Acute or chronic toxicities,PIN,no acute or chronic toxicities
same,"Quality of life, including potency and libido",PIN,unchanged
same,"Serum PSA, serum free testosterone, serum total testosterone and serum estradiol",PIN,remained in the normal ranges
same,Complete response,PIN; 16 patients completed,75%
same,Patients who had prostate cancer but the amount of PIN was reduced,PIN; of 16 patients,3 patients
same,Patients with stable disease (PIN epithelium with atrophic and degenerative changes),PIN; of 16 patients,1 patient
same,Patients with regression of PIN to benign or atrophic prostate tissue,PIN; rebiopsy (8 biopsies),12 out of 16
